Laboratory results taken from article PMC12751015, “Evaluation of Bifunctional, PSMA-Targeted Triazamacrocycle-Picolinates Compatible with the ^18F/^44Sc/^177Lu Isotope Triad” (Journal of Medicinal Chemistry, 2025).

Tests used:
[1] = pH-dependent speciation of ScF complexes by 1H and 45Sc NMR (HypNMR2008 fit); format: physicochemical; details: Sc3+ complexes, determined by HypNMR2008
Text: To establish optimal parameters for the formation of ScF ternary complexes, we determined the pH-dependent speciation of ScF complexes with H 3 mpatcn and H 2 mpatcn-am-Bz using ^1H and ^45Sc NMR spectroscopy in accordance with previous methods established for the formation of lanthanide-fluoride complexes (Supporting Information, Section S3). […] Above pH 10, the [Sc(L)-OH] species becomes most favorable, effectively outcompeting the F^– ligand at increasing concentration. Low pH conditions led to the presence of protonated species [Sc(mpatcn)-H]^+, which competes with inner sphere fluorination. […] For both ligands, no statistically significant differences for pH dependence were observed, with the % of [ScF(L)] species remaining constant between pH 3 and 8 (Table ).

PSMA + tumor = details: 2 h p.i., clinically employed agents; ref not printed (Table S11); cited from earlier work

logßML [1]	logßMLF [1]	logßMLOH [1]	logßMLH [1]	SMILES	tumor to blood ratio (PSMA + tumor)
23.2	27.8	13.7	–	CN(Cc1ccccc1)C(=O)CN1CCN(CC(=O)O)CCN(Cc2cccc(C(=O)O)n2)CC1 [mpatcn-am-Bz]	–
–	–	–	–	O=C(O)CC[C@H](NC(=O)N[C@@H](CCCCNC(=O)c1ccc(F)nc1)C(=O)O)C(=O)O [Pylarify]	1220 ± 431
23	27.7	14.2	24.9	O=C(O)CN1CCN(CC(=O)O)CCN(Cc2cccc(C(=O)O)n2)CC1 [mpatcn]	–
